Measured values published in PubChem BioAssay AID248 (DTP/NCI, 2004).
“And” between values parts separate entries of the source, which are not always exact repeats. Identical values can stand only once. Inconclusive results and toxic doses are left out. Rule as the data show it: active = T/C of 150% or more; inactive = T/C below 125%.

Test system: L1210 leukemia ip in BDF1 mice, survival T/C
Assay: NCI In Vivo Anticancer Drug Screen. Data for tumor model L1210 Leukemia (intraperitoneal) in B6D2F1 (BDF1) mice
Conditions: endpoint: mean survival time, higher = longer survival
Procedure, shortened: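 Transplanted-tumor mice were given test agent; controls received vehicle only. Survival readings from the two groups were divided (treated over control).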

[1] = dose: 100.0 mg/kg/injection, schedule: Q01DX009 (ip), vehicle: saline
[2] = dose: 100.0 mg/kg/injection, schedule: Q04DX002 (ip), vehicle: Klucel (hydroxypropylcellulose) (HPC)
[3] = dose: 200.0 mg/kg/injection, schedule: Q04DX002 (ip), vehicle: Klucel (hydroxypropylcellulose) (HPC)
[4] = dose: 400.0 mg/kg/injection, schedule: Q04DX002 (ip), vehicle: Klucel (hydroxypropylcellulose) (HPC)
[5] = dose: 100.0 mg/kg/injection, schedule: Q04DX003 (ip), vehicle: Klucel (hydroxypropylcellulose) (HPC)
[6] = dose: 200.0 mg/kg/injection, schedule: Q04DX003 (ip), vehicle: Klucel (hydroxypropylcellulose) (HPC)
[7] = dose: 400.0 mg/kg/injection, schedule: Q04DX003 (ip), vehicle: Klucel (hydroxypropylcellulose) (HPC)
[8] = dose: 100.0 mg/kg/injection, schedule: Q04DX003 (ip), vehicle: saline with Tween-80
[9] = dose: 200.0 mg/kg/injection, schedule: Q04DX003 (ip), vehicle: saline with Tween-80
[10] = dose: 100.0 mg/kg/injection, schedule: Q01DX001 (ip), vehicle: Klucel (hydroxypropylcellulose) (HPC)
[11] = dose: 200.0 mg/kg/injection, schedule: Q01DX001 (ip), vehicle: Klucel (hydroxypropylcellulose) (HPC)
[12] = dose: 400.0 mg/kg/injection, schedule: Q01DX001 (ip), vehicle: Klucel (hydroxypropylcellulose) (HPC)
[13] = dose: 200.0 mg/kg/injection, schedule: Q01DX009 (ip), vehicle: saline
[14] = dose: 400.0 mg/kg/injection, schedule: Q01DX009 (ip), vehicle: saline
[15] = dose: 50.0 mg/kg/injection, schedule: Q01DX001 (ip), vehicle: saline
[16] = dose: 100.0 mg/kg/injection, schedule: Q01DX001 (ip), vehicle: saline
[17] = dose: 200.0 mg/kg/injection, schedule: Q01DX001 (ip), vehicle: saline
[18] = dose: 400.0 mg/kg/injection, schedule: Q01DX001 (ip), vehicle: saline
[19] = dose: 100.0 mg/kg/injection, schedule: Q01DX009 (ip), vehicle: Klucel (hydroxypropylcellulose) (HPC)
[20] = dose: 200.0 mg/kg/injection, schedule: Q01DX009 (ip), vehicle: Klucel (hydroxypropylcellulose) (HPC)
[21] = dose: 400.0 mg/kg/injection, schedule: Q01DX009 (ip), vehicle: Klucel (hydroxypropylcellulose) (HPC)
[22] = dose: 50.0 mg/kg/injection, schedule: Q01DX009 (ip), vehicle: saline with Tween-80
[23] = dose: 100.0 mg/kg/injection, schedule: Q01DX009 (ip), vehicle: saline with Tween-80
[24] = dose: 200.0 mg/kg/injection, schedule: Q01DX009 (ip), vehicle: saline with Tween-80
[25] = dose: 75.0 mg/kg/injection, schedule: Q01DX001 (ip), vehicle: carboxymethylcellulose (CMC)
[26] = dose: 400.0 mg/kg/injection, schedule: Q01DX009 (ip), vehicle: saline with Tween-80
[27] = dose: 400.0 mg/kg/injection, schedule: Q04DX003 (ip), vehicle: saline with Tween-80

Measured: T/C

COc1cc2ccc3cc[n+](C)cc3c2cc1OC
inactive: dose: 50.0 mg/kg/injection, schedule: Q04DX003 (ip), vehicle: saline 104 % of control | dose: 66.0 mg/kg/injection, schedule: Q01DX009 (ip), vehicle: saline 121 % of control | [1] 110 % of control | dose: 100.0 mg/kg/injection, schedule: Q04DX003 (ip), vehicle: saline 98 % of control and 104 % of control | dose: 150.0 mg/kg/injection, schedule: Q01DX009 (ip), vehicle: saline 96 % of control | dose: 200.0 mg/kg/injection, schedule: Q04DX003 (ip), vehicle: saline 110 % of control | dose: 400.0 mg/kg/injection, schedule: Q04DX003 (ip), vehicle: saline 102 % of control

CC(=O)Nc1ccc(NC(=O)c2ccc(F)cc2)cc1
inactive: dose: 100.0 mg/kg/injection, schedule: Q01DX009 (ip), vehicle: gum acacia 91 % of control | dose: 200.0 mg/kg/injection, schedule: Q01DX009 (ip), vehicle: gum acacia 89 % of control | dose: 400.0 mg/kg/injection, schedule: Q01DX009 (ip), vehicle: gum acacia 102 % of control

O=C(Nc1ncc([N+](=O)[O-])s1)c1ccccc1Oc1ccccc1
inactive: [2] 102 % of control | [3] 115 % of control | [4] 100 % of control

[N-]=[N+]=Nc1ccc(-c2nc(N)[nH]c(=O)c2Br)cc1
inactive: [5] 93 % of control | [6] 86 % of control | [7] 100 % of control

O=C1CC=C2C3CC4N(CCC45c4ccccc4N1C25)C/C3=C\CBr (centres undefined)
inactive: dose: 9.38 mg/kg/injection, schedule: Q01DX001 (ip), vehicle: other 100 % of control

CCOC(=O)CC/C(=C/c1ccccc1)[N+](=O)[O-]
inactive: dose: 25.0 mg/kg/injection, schedule: Q04DX003 (ip), vehicle: saline with Tween-80 97 % of control and 104 % of control | dose: 50.0 mg/kg/injection, schedule: Q04DX003 (ip), vehicle: saline with Tween-80 94 % of control and 98 % of control | [8] 106 % of control and 107 % of control and 121 % of control | [9] 89 % of control

O=S1(=O)CCC/C1=C\c1ccccc1
inactive: [10] 121 % of control | [11] 103 % of control | [12] 101 % of control

NC(C1SCCS1)C(O)C(O)C(O)CO (centres undefined)
inactive: [1] 98 % of control | [13] 91 % of control | [14] 96 % of control

C=CC1CN2CCC1CC2C(=O)c1ccnc2ccc(OC)cc12 (centres undefined)
inactive: [15] 98 % of control | [16] 102 % of control | [17] 95 % of control | [18] 101 % of control

COc1ccc(-n2c(=O)c(N=Nc3ccc(Br)cc3)c(O)n(-c3ccc(Cl)cc3)c2=S)cc1
inactive: dose: 37.5 mg/kg/injection, schedule: Q01DX001 (ip), vehicle: Klucel (hydroxypropylcellulose) (HPC) 102 % of control | dose: 75.0 mg/kg/injection, schedule: Q01DX001 (ip), vehicle: Klucel (hydroxypropylcellulose) (HPC) 101 % of control | dose: 150.0 mg/kg/injection, schedule: Q01DX001 (ip), vehicle: Klucel (hydroxypropylcellulose) (HPC) 104 % of control

Cc1cc(C)nc(NC(=O)Nc2cccc(C(F)(F)F)c2)c1
inactive: [10] 102 % of control | [19] 104 % of control and 113 % of control | [2] 101 % of control and 117 % of control | [5] 94 % of control | [11] 94 % of control | [20] 93 % of control and 109 % of control | [3] 96 % of control and 98 % of control | [6] 111 % of control | [12] 98 % of control | [21] 104 % of control and 107 % of control | [4] 98 % of control and 99 % of control | [7] 99 % of control

O=[N+]([O-])c1cc([N+](=O)[O-])c(NN(c2ccc(Cl)cc2)c2ccc(Cl)cc2)c([N+](=O)[O-])c1
inactive: dose: 25.0 mg/kg/injection, schedule: Q01DX009 (ip), vehicle: Klucel (hydroxypropylcellulose) (HPC) 96 % of control | dose: 50.0 mg/kg/injection, schedule: Q01DX009 (ip), vehicle: Klucel (hydroxypropylcellulose) (HPC) 105 % of control | [19] 98 % of control | [5] 98 % of control | [6] 96 % of control | [7] 96 % of control

C1CN(CC2CO2)CCO1 (centres undefined)
inactive: [1] 105 % of control | [13] 117 % of control | [14] 105 % of control

N#Cc1c(Br)n(C2OC(CO)C(O)C2O)c2ncnc(N)c12 (centres undefined)
inactive: [16] 123 % of control | dose: 178.0 mg/kg/injection, schedule: Q01DX001 (ip), vehicle: saline 104 % of control and 115 % of control | dose: 267.0 mg/kg/injection, schedule: Q01DX001 (ip), vehicle: saline 110 % of control and 117 % of control | [18] 112 % of control and 121 % of control | dose: 600.0 mg/kg/injection, schedule: Q01DX001 (ip), vehicle: saline 114 % of control

COc1cccc(C(=O)C(CCC#N)c2ccccc2)c1 (centres undefined)
inactive: [19] 98 % of control | [5] 106 % of control | [20] 98 % of control | [6] 100 % of control | [21] 96 % of control | [7] 95 % of control

CCOCC(=O)Cc1ccccc1
inactive: [22] 95 % of control | [23] 100 % of control | [24] 92 % of control

COC1(C)C(=O)Oc2c1c1ccccc1c1ccccc21 (centres undefined)
inactive: [25] 94 % of control | dose: 150.0 mg/kg/injection, schedule: Q01DX001 (ip), vehicle: carboxymethylcellulose (CMC) 89 % of control

Nc1ncnc(N)c1NC(=O)CCCc1ccc([N+](=O)[O-])cc1
inactive: dose: 50.0 mg/kg/injection, schedule: Q01DX001 (ip), vehicle: Klucel (hydroxypropylcellulose) (HPC) 102 % of control | [10] 98 % of control | [11] 94 % of control

CC1=C(C)C2(Cl)C(Cl)=C(Cl)C1(Cl)C2(Cl)Cl
inactive: dose: 50.0 mg/kg/injection, schedule: Q04DX003 (ip), vehicle: Klucel (hydroxypropylcellulose) (HPC) 96 % of control | [5] 91 % of control | [6] 92 % of control | [7] 96 % of control

CCCCCCCCCCCCCC[As](=O)(O)CCCCCCCCCCCCCC
inactive: [15] 103 % of control | [16] 101 % of control | [17] 101 % of control | [18] 95 % of control

NC(=Nc1ccc(N)cc1)C(N)=Nc1ccc(N)cc1
inactive: [22] 97 % of control | [23] 95 % of control and 98 % of control | [8] 96 % of control | [24] 106 % of control | [9] 98 % of control | [26] 96 % of control and 112 % of control | [27] 91 % of control

C/C=C/CCC(C)=O
inactive: [8] 99 % of control | [9] 100 % of control | [27] 108 % of control

C1C2OC2CC2OC12 (centres undefined)
inactive: [23] 95 % of control | [24] 96 % of control | [26] 95 % of control

COC(=O)c1nc[nH]c1N=[N+]=[N-]
inactive: dose: 100.0 mg/kg/injection, schedule: Q01DX001 (ip), vehicle: other 97 % of control

CCC(C#N)(c1ccccc1)c1ccccc1
inactive: [19] 96 % of control | [5] 98 % of control | [20] 94 % of control | [6] 94 % of control | [21] 94 % of control | [7] 98 % of control

Cn1c(SCc2ccccc2)nccc1=O
inactive: [19] 96 % of control | [20] 104 % of control

CCCCCC(C)O[Si](C)Cc1ccccc1 (centres undefined)
inactive: [8] 95 % of control | [9] 97 % of control | [27] 90 % of control

CCOC(=O)C(O)c1ccc[nH]1 (centres undefined)
inactive: dose: 100.0 mg/kg/injection, schedule: Q01DX001 (ip), vehicle: saline with Tween-80 115 % of control | [8] 89 % of control | dose: 200.0 mg/kg/injection, schedule: Q01DX001 (ip), vehicle: saline with Tween-80 115 % of control | dose: 400.0 mg/kg/injection, schedule: Q01DX001 (ip), vehicle: saline with Tween-80 111 % of control | [27] 95 % of control

Cc1[nH]nc(C(F)(F)F)c1N=NN1CCC(C(N)=O)CC1
inactive: [25] 95 % of control

O=C(c1ccccc1Cl)N(Cc1ccccc1)c1ccccc1
inactive: [19] 102 % of control | [20] 103 % of control | [21] 100 % of control

O=C(N/N=C\c1ccc([N+](=O)[O-])cc1)c1ccncc1
inactive: [23] 94 % of control | [24] 94 % of control | [26] 98 % of control
